The values that follow are results of earlier work, collected in patent publication US11278511B2, “Sports health performance composition” (REV Pharmaceuticals, Inc., priority 2016, dated 2022).

Data set [1] has as its system urinary cGMP and nitrate excretion.
Setting [2] is: IV infusion or oral, doses 6 to 30 gm, humans.

Like-named read-outs stand apart in the source and are kept apart here.

The Cmax is the maximum level reached in the sampled fluid or tissue. In the case of `N=C(N)NCCC[C@H](N)C(=O)O` [L-arginine], the Cmax was 822 µM (6 gm IV), 310 µM (6 gm oral) and 6220 µM (30 gm IV). In addition, the Half life was 1 h (IV) and 1.5 h (PO). Besides, the changes in hemodynamics result in the data set with humans (6 gm doses) is recorded as “No significant changes”. Besides, the blood pressure result in the data set with humans (30 gm IV) is recorded as “significantly decreased”. For the same compound, the total peripheral resistance entry with humans (30 gm IV) was “significantly decreased”. Further, the endothelium-dependent vasodilation result in the data set with humans (setting [2]) was “improved endothelium-dependent vasodilation”. For the same compound, in the data set with humans (setting [2]), the muscle blood flow result is “improved muscle blood flow”. Further, the peripheral vasodilation entry with humans (setting [2]) is “induced peripheral vasodilation”. For the same compound, the “urinary cGMP excretion” value in data set [1] (6 gm IV) and in data set [1] (30 gm IV) was “significant increases” throughout. The urinary nitrate excretion entry in data set [1] (6 gm IV) and in data set [1] (30 gm IV) was “significant increases” in each case.
